# Experimental data from ChEMBL document CHEMBL4725440, “Peptoid NPhe in AGRP-Based c[Pro-Arg-Phe-Phe-Xxx-Ala-Phe-DPro] Scaffolds Maintain Mouse MC4R Antagonist Potency” (ACS Med Chem Lett, 2020).
# Where a SMILES comes first, the peptide text is derived from it.
# How the values were obtained:
# Type in all cases: functional
# Melanocortin receptor 3 [1] = molecular target: T1, Melanocortin receptor 3 (Mus musculus, UniProt P33033); assay: Antagonist activity at mouse MC3R assessed as antagonist potency by alphascreen cAMP assay; conditions: read-out: pA2 (converted)
# Melanocortin receptor 4 [2] = molecular target: T2, Melanocortin receptor 4 (Mus musculus, UniProt P56450); assay: Antagonist activity at mouse MC4R assessed as antagonist potency by alphascreen cAMP assay; conditions: read-out: pA2 (converted)
# Melanocortin receptor 3 [3] = molecular target: T1, Melanocortin receptor 3; assay: Agonist activity at mouse MC3R by alphascreen cAMP assay
# Melanocortin receptor 5 = Melanocortin receptor 5 (Mus musculus, UniProt P41149); assay: Agonist activity at mouse MC5R by alphascreen cAMP assay
# Melanocortin receptor 4 [4] = molecular target: T2, Melanocortin receptor 4; assay: Agonist activity at mouse MC4R by alphascreen cAMP assay
# [5] = molecular target: Melanocyte-stimulating hormone receptor (Mus musculus) (UniProt Q01727); assay: Agonist activity at mouse MC1R at 100 uM by alphascreen cAMP assay relative to NDP-MSH; conditions: filed as partial agonist
# [6] = molecular target: Melanocortin receptor 5 (Mus musculus) (UniProt P41149); assay: Agonist activity at mouse MC5R at 100 uM by alphascreen cAMP assay relative to control
# [7] = molecular target: Melanocyte-stimulating hormone receptor (Mus musculus, UniProt Q01727); assay: Agonist activity at mouse MC1R by alphascreen cAMP assay
# [8] = molecular target: Melanocortin receptor 3 (Mus musculus) (UniProt P33033); assay: Agonist activity at mouse MC3R at 100 uM by alphascreen cAMP assay relative to control
# Sequence of Melanocortin receptor 3 (Mus musculus) (P33033 whole entry): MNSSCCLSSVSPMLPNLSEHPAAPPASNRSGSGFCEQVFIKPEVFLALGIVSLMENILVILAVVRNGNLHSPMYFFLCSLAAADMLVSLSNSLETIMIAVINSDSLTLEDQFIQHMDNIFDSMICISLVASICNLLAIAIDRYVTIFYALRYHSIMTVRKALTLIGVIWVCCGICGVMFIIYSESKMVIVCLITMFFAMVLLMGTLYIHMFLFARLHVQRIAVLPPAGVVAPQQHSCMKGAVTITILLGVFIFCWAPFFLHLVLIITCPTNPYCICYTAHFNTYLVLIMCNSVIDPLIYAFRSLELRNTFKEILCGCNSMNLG
# T1 sequence (P33033 whole entry): as above
# Sequence of Melanocyte-stimulating hormone receptor (Mus musculus) (Q01727 whole entry, looked up): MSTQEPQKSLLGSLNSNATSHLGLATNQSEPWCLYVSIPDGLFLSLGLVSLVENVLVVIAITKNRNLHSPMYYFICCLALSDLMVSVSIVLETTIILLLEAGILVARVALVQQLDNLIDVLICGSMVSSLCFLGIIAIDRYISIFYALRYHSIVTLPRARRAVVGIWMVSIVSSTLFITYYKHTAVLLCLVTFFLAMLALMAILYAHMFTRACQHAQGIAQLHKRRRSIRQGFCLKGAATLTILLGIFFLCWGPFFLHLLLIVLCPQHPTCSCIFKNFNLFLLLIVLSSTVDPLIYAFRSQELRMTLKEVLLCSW
# Sequence of Melanocyte-stimulating hormone receptor (Q01727 whole entry): as the sequence (Q01727 whole entry, looked up) above
# T2 sequence (P56450 whole entry): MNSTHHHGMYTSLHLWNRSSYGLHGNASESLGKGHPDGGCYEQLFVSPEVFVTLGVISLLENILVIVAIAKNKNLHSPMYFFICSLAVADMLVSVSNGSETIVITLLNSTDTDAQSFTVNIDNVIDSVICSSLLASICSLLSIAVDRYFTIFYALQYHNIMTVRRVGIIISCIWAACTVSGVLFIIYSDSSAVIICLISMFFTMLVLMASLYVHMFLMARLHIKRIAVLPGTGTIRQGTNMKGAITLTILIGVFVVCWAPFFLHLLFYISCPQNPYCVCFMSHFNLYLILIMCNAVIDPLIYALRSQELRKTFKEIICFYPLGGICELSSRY
# Sequence of Melanocortin receptor 5 (P41149 whole entry): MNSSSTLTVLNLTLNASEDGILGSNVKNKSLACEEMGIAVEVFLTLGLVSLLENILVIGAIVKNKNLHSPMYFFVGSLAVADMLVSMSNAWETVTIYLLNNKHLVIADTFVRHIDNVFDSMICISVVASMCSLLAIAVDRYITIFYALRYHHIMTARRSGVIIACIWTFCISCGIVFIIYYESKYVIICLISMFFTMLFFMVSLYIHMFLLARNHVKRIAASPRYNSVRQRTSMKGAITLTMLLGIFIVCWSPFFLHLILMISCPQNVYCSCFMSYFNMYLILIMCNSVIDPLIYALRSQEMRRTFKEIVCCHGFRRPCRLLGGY
# Sequence of Melanocortin receptor 5 (Mus musculus) (P41149 whole entry): as above
Compound,EC50 (Melanocortin receptor 3 [3]) [µM],EC50 (Melanocortin receptor 5) [µM],EC50 (Melanocortin receptor 4 [4]) [µM],Activity [5] [%],Activity ([6]; filed as inverse agonist) [%],Activity ([8]; filed as agonist) [%],Activity [8] [%],Activity ([6]; filed as partial agonist) [%],Kb (Melanocortin receptor 3 [1]) [µM],Kb (Melanocortin receptor 4 [2]) [µM],EC50 [7] [µM]
C[C@@H]1NC(=O)CN(CCN)C(=O)[C@H](Cc2ccccc2)NC(=O)[C@H](Cc2ccccc2)NC(=O)[C@H](CCCNC(=N)N)NC(=O)[C@@H]2CCCN2C(=O)[C@H]2CCCN2C(=O)[C@H](Cc2ccccc2)NC1=O,> 100,–,> 100,60,10,–,–,–,0.126,0.00398,–
C[C@@H]1NC(=O)[C@H](CN)NC(=O)CN(Cc2ccccc2)C(=O)[C@H](Cc2ccccc2)NC(=O)[C@H](CCCNC(=N)N)NC(=O)[C@@H]2CCCN2C(=O)[C@H]2CCCN2C(=O)[C@H](Cc2ccccc2)NC1=O,> 100,–,> 100,60,10,–,–,–,–,–,–
CN1CC(=O)N[C@@H](Cc2ccccc2)C(=O)N2CCC[C@@H]2C(=O)N2CCC[C@H]2C(=O)N[C@@H](CCCNC(=N)N)C(=O)N[C@@H](Cc2ccccc2)C(=O)N[C@@H](Cc2ccccc2)C(=O)N[C@@H](CN)C1=O,> 100,> 100,> 100,–,–,–,–,–,2.51,0.794,> 100
C[C@@H]1NC(=O)[C@H](CN)NC(=O)[C@H](Cc2ccccc2)NC(=O)[C@H](Cc2ccccc2)NC(=O)[C@H](CCCNC(=N)N)NC(=O)[C@@H]2CCCN2C(=O)[C@H]2CCCN2C(=O)CN(Cc2ccccc2)C1=O,> 100,–,> 100,–,10,–,–,–,3.16,0.251,> 100
"C[C@@H]1NC(=O)[C@H](CN)NC(=O)[C@H](Cc2ccccc2)NC(=O)[C@H](Cc2ccccc2)NC(=O)CN(CCCNC(=N)N)C(=O)[C@@H]2CCCN2C(=O)[C@H]2CCCN2C(=O)[C@H](Cc2ccccc2)NC1=O (HELM PEPTIDE1{[N=C(N)NCCCN(CC(=O)[*:2])[*:1]].F.F.[NC[C@H](N[*:1])C(=O)[*:2]].A.F.[dP].P}$PEPTIDE1,PEPTIDE1,1:R1-8:R2$$$V2.0)",> 100,> 100,> 100,–,–,–,–,–,1.26,> 3.16,> 100
C[C@@H]1NC(=O)[C@H](CC(N)=O)NC(=O)[C@H](Cc2ccccc2)NC(=O)CN(Cc2ccccc2)C(=O)[C@H](CCCNC(=N)N)NC(=O)[C@@H]2CCCN2C(=O)[C@H]2CCCN2C(=O)[C@H](Cc2ccccc2)NC1=O,> 100,–,> 100,–,10,–,–,–,–,> 3.16,–

# Continued, in another order:
EC50 (Melanocortin receptor 3 [3]) [µM],EC50 (Melanocortin receptor 5) [µM],EC50 (Melanocortin receptor 4 [4]) [µM],Activity [5] [%],Activity ([6]; filed as inverse agonist) [%],Activity ([8]; filed as agonist) [%],Activity [8] [%],Activity ([6]; filed as partial agonist) [%],Compound,Kb (Melanocortin receptor 3 [1]) [µM],Kb (Melanocortin receptor 4 [2]) [µM],EC50 [7] [µM]
> 100,> 100,> 100,–,–,–,–,–,"CN1CC(=O)N[C@@H](Cc2ccccc2)C(=O)N2CCC[C@@H]2C(=O)N2CCC[C@H]2C(=O)N[C@@H](CCCNC(=N)N)C(=O)N[C@@H](Cc2ccccc2)C(=O)N[C@@H](Cc2ccccc2)C(=O)N[C@@H](CC(N)=O)C1=O (HELM PEPTIDE1{P.R.F.F.N.[Sar].F.[dP]}$PEPTIDE1,PEPTIDE1,1:R1-8:R2$$$V2.0)",> 3.16,> 3.16,–
> 100,–,> 100,70,10,–,–,–,C[C@@H]1NC(=O)[C@H](CC(N)=O)NC(=O)CN(Cc2ccccc2)C(=O)[C@H](Cc2ccccc2)NC(=O)[C@H](CCCNC(=N)N)NC(=O)[C@@H]2CCCN2C(=O)[C@H]2CCCN2C(=O)[C@H](Cc2ccccc2)NC1=O,–,–,–
> 100,> 100,> 100,50,–,–,–,–,"C[C@@H]1NC(=O)[C@H](CC(N)=O)NC(=O)[C@H](Cc2ccccc2)NC(=O)[C@H](Cc2ccccc2)NC(=O)CN(CCCNC(=N)N)C(=O)[C@@H]2CCCN2C(=O)[C@H]2CCCN2C(=O)[C@H](Cc2ccccc2)NC1=O (HELM PEPTIDE1{P.[N=C(N)NCCCN(CC(=O)[*:2])[*:1]].F.F.N.A.F.[dP]}$PEPTIDE1,PEPTIDE1,1:R1-8:R2$$$V2.0)",> 3.16,> 3.16,–
–,> 100,> 100,85,–,60,–,–,C[C@@H]1NC(=O)[C@H](CC(N)=O)NC(=O)[C@H](Cc2ccccc2)NC(=O)[C@H](Cc2ccccc2)NC(=O)[C@H](CCCNC(=N)N)NC(=O)[C@@H]2CCCN2C(=O)[C@H]2CCCN2C(=O)CN(Cc2ccccc2)C1=O,> 3.16,> 3.16,–
–,–,–,–,10,–,20,–,C[C@@H]1NC(=O)[C@H](CN)NC(=O)[C@H](Cc2ccccc2)NC(=O)[C@H](Cc2ccccc2)NC(=O)[C@H](CCCNC(=N)N)NC(=O)[C@@H]2CCCN2C(=O)[C@H]2CCCN2C(=O)[C@H](Cc2ccccc2)NC1=O,–,–,–
> 100,–,> 100,80,–,–,–,70,C[C@@H]1NC(=O)[C@H](CN)NC(=O)[C@H](Cc2ccccc2)NC(=O)CN(Cc2ccccc2)C(=O)[C@H](CCCNC(=N)N)NC(=O)[C@@H]2CCCN2C(=O)[C@H]2CCCN2C(=O)[C@H](Cc2ccccc2)NC1=O,–,–,–
